Measurements taken from PubChem BioAssay (NCI).
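Results reflect a 48-hour exposure of cells in 96-well plates to compound at five concentrations. Abbreviation: GI50, concentration required for 50% inhibition of growth. TGI marks complete inhibition of growth.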

Columns and labels:
Experiment in all cases: NCI tumour cell line growth inhibition, 48 h
HOP-92 NSCLC = system: HOP-92 NSCLC
HL-60(TB) leukemia = system: HL-60(TB) leukemia
U251 CNS = system: U251 CNS
M14 melanoma = system: M14 melanoma
DU-145 prostate = system: DU-145 prostate
A498 renal = system: A498 renal
SK-MEL-5 melanoma = system: SK-MEL-5 melanoma
SK-OV-3 ovarian = system: SK-OV-3 ovarian
SF-539 CNS = system: SF-539 CNS
A549 NSCLC = system: A549 NSCLC

Row | SMILES | GI50 (HOP-92 NSCLC) [µM] | TGI (HOP-92 NSCLC) [µM] | GI50 (HL-60(TB) leukemia) [µM] | TGI (HL-60(TB) leukemia) [µM] | GI50 (U251 CNS) [µM] | TGI (U251 CNS) [µM] | GI50 (M14 melanoma) [µM] | TGI (M14 melanoma) [µM] | GI50 (DU-145 prostate) [µM] | TGI (DU-145 prostate) [µM] | GI50 (A498 renal) [µM] | TGI (A498 renal) [µM] | GI50 (SK-MEL-5 melanoma) [µM] | TGI (SK-MEL-5 melanoma) [µM] | GI50 (SK-OV-3 ovarian) [µM] | TGI (SK-OV-3 ovarian) [µM] | GI50 (SF-539 CNS) [µM] | TGI (SF-539 CNS) [µM] | GI50 (A549 NSCLC) [µM] | TGI (A549 NSCLC) [µM]
1 | COc1cccc(-c2nn(-c3ccccc3)cc2-c2ccnc(NCCCNS(=O)(=O)c3ccc(C(F)(F)F)cc3)c2)c1 | 3.68 | > 100 | 3.97 | > 100 | 5.63 | > 100 | 4.46 | > 100 | 22.7 | > 100 | 3.8 | > 100 | 2.18 | 5.04 | 4.82 | > 100 | 5.66 | > 100 | 6.65 | > 100
2 | Cc1cn(C2CC(O)C(COC(N)=O)O2)c(=O)[nH]c1=O (configuration not stated) |  | > 100 |  | > 100 |  | > 100 |  | > 100 |  | > 100 |  | > 100 |  | > 100 |  | > 100 |  | > 100 |  | > 100
3 | CC(=O)/C=C/c1ccc(N(CCO)Cc2ccc(C(C)(C)C)cc2)cc1 | 27.6 | 156 | 24.9 | 66.8 | 66.1 | 194 | 48.9 | 200 | 73.2 | 206 | 113 | 236 | 39.9 | 146 | 121 | 248 | 84.3 | 212 | 56.5 | 182
4 | CCCCC[C@H]1C/C=C2/C(=O)C(Cl)=C[C@@H]2C/C=C\CCCC(=O)O1 | 0.587 | 1.38 | 0.565 | 2.72 | 0.33 | 0.737 | 0.422 | 0.999 | 0.638 | 2.51 | 0.546 | 1.46 | 0.437 | 0.812 | 0.907 | 2.68 | 0.607 | 1.61 | 0.625 | 1.87
5 | CCC(C)C(=O)OC1CCC=C2C=CC(C)C(CCC3CC(O)CC(=O)O3)C21 (configuration not stated) | 0.79 | > 100 |  | > 100 |  | > 100 |  | > 27.5 |  | > 100 |  | > 66 |  | > 100 |  | > 100 |  | > 29.5 |  | > 100
6 | CC(=N\O)/C(C)=N/O.CC(=N\O)/C(C)=N/O.[Fe].[NH2-].c1c[nH]cn1 | 28.6 | > 100 | > 100 | > 100 | > 100 | > 100 | > 100 | > 100 | > 100 | > 100 | > 100 | > 100 | > 100 | > 100 | > 100 | > 100 | > 100 | > 100 | > 100 | > 100
7 | C=C1C(=O)O[C@H]2[C@H]1CC/C(COC(=O)/C=C\C(=O)NCc1ccc(Cn3c(=O)sn(-c4ccc(Cl)cc4)c3=O)cc1)=C\CC[C@@]1(C)O[C@@H]21 | 0.569 | 1.35 | 0.696 | 2.52 | 0.713 | 1.6 | 0.639 | 1.48 | 0.638 | 1.3 | 0.741 | 1.43 | 0.825 | 1.52 | 4.04 | 10.7 | 0.748 | 1.43 | 0.871 | 2.35
8 | CC(C)(C)OC(=O)N1Cc2cc3ccccc3nc2C1CO (configuration not stated) | 57.8 | > 100 | > 100 | > 100 | > 100 | > 100 | > 100 | > 100 | > 100 | > 100 | > 100 | > 100 | > 100 | > 100 | > 100 | > 100 | > 100 | > 100 | > 100 | > 100
9 | COc1ccc2c(c1)C(=O)c1c-2n(CCCCl)c(=O)c2cc(N)ccc12 | 21.2 | > 100 | > 41.3 | > 59.1 | > 51.6 | > 100 | > 100 | > 100 | 56.9 | > 100 | > 100 | > 100 | 51 | > 100 | > 100 | > 100 | > 100 | > 100 | > 100 | > 100
10 | c1ccc2c(c1)[nH]c1c3ccccc3sc21 |  | > 100 |  | > 100 |  | > 100 |  | > 100 |  | > 100 |  | > 100 |  | > 100 |  | > 100 |  | > 100 |  | > 100
11 | CCC(=C(c1ccc(OCCN2CCCC2)cc1)c1ccc(OCCN2CCCC2)cc1)c1ccc(Cl)cc1 | 0.482 | 1.04 | 0.606 | 1.27 | 0.576 | 1.14 | 0.629 | 1.18 | 0.617 | 1.14 | 1.28 | 2.82 | 0.6 | 1.07 | 0.583 | 1.14 | 0.558 | 1.05 | 0.594 | 1.21
12 | CCOC(=O)c1ccc(NC(=O)c2cccc(NC3=C(Cl)C(=O)N(Cc4ccccc4)C3=O)c2)cc1 | 78.8 | > 100 | 17.2 | 45.9 | > 100 | > 100 | > 100 | > 100 | > 100 | > 100 | > 100 | > 100 | > 100 | > 100 | > 100 | > 100 | > 100 | > 100 | > 100 | > 100
13 | O=C1c2ccccc2C(=O)c2sc(Nc3ccc([N+](=O)[O-])cc3)nc21 |  | 28.6 |  | 2.52 |  | 8.71 |  | 5.91 |  | 33.5 |  | 34.8 |  | 6.38 |  | 36.8 |  | 15.3 |  | 41.7
14 | CCN(CC)CCCNc1cc(OC)c(OC)c2cccnc12 | 28.4 | 62.8 | 3.47 | 6.55 | 3.71 | 21 | 12.6 | 37.6 | 15.9 | 33.4 | 18.6 | 42 | 5.67 | 19.9 | 9.37 | 44.9 | 8.01 | 23 | 10.5 | 38.1
15 | CC1(C)CC[C@]2(CO)CC[C@]3(C)C(=CC[C@@H]4[C@@]5(C)CCNCC(C)(C)[C@@H]5CC[C@]43C)[C@@H]2C1 | 1.4 | 4.14 | 2.45 | 7.34 | 3.53 | 13.5 | 2.05 | 4.14 | 6.93 | 21 | 12.5 | 25.1 | 1.86 | 3.64 | 13.5 | 26.8 | 10.6 | 23.1 | 8.23 | 22.7
16 | NC(=O)c1ncn2c(=O)n(CCCl)nnc12 |  | 408 |  | 223 | 99.2 | 447 |  | 500 |  | 520 |  | 375 |  | 324 |  | 130 |  | 164 |  | 628
